Reference: patent US7034055B1, “2-aminoindane analogs” (Prescient Neuropharma Inc., priority 1999, dated 2006)
Read-outs that look alike come from different tables or passages of the source.

How the values were obtained:
[1] = tested on: Group II/III metabotropic glutamate receptors (mGluRs); experiment: Cyclic AMP assay (ex vivo, forskolin-induced cAMP accumulation in rat cortical slices); type: cell-based, Sprague Dawley rat
Experimental: The assay of cyclic AMP formation can be performed as described previously (Tovey et al., Clinica Chimica Acta, 56, 221-234, 1974). The assay can be modelled on the cyclic AMP assay kit available from Amersham, which in turn, is based on the assay created by Tovey et al. Briefly, samples are prepared from Sprague Dawley rat (225-250 g) cortical slices. Slices are incubated with the drug, and then challenged with forskolin to induce cyclic AMP release. Following termination of the reaction by boiling, the slices are homogenized and centrifuged. Samples of supernatant are then incubated for 2-3 hours with a known quantity of [^3H]cAMP and a binding protein. […] The resulting supernatant (containing free cyclic AMP) is then analyzed by liquid scintillation counting. The amount of unbound cyclic AMP can be calculated from a standard curve previously determined with various samples of free cyclic AMP. […]
The assay has been modeled on the cyclic AMP assay kit available from Amersham. […] Samples of supernatant were then incubated for 2-3 hours with a known quantity of [^3H]cAMP and a binding protein. […] The resulting supernatant (containing free cyclic AMP) was then analyzed by liquid scintillation counting. The amount of unbound cyclic AMP was calculated from a standard curve previously determined with various samples of free cyclic AMP. […]

[2] = tested on: Group I metabotropic glutamate receptors (mGluRs); experiment: Phosphatidylinositol assay (ex vivo, inositol phosphate accumulation in neonatal rat tissue slices); type: cell-based, Sprague Dawley rat; conditions: antagonist, versus ACPD, 45 minutes
Experimental: Briefly, cross-chopped slices are prepared from neonatal Sprague Dawley rat tissue (age: p7-p14). The slices are pre-labelled with [^3H] myo-inositol. Following pre-labelling, the slices are incubated with the test drugs and standard (known Group I agonists i.e. ACPD) for a period of 45 minutes. The incubation is terminated by the addition of chloroform/methanol/HCl (100:200:2). The resulting mixture is separated into two phases by the addition of chloroform and distilled water. The aqueous fraction is applied to ion exchange columns, and inositol phosphates are eluted using 800 mM Ammonium Formate/100 mM Formic Acid. The eluent is then analyzed using liquid scintillation counting. The amount of inositol phosphate accumulation is expressed as a percentage of that induced by ACPD.
Group I metabotropic glutamate receptors (mGluRs) are positively coupled on inositol phosphate metabolism. Agonists at these receptors lead to an increase in intracellular free inositol phosphates, while antagonists inhibit the increase in intracellular free inositol phosphate induced by standard agonists (i.e. ACPD).
Cross-chopped slices were prepared from neonatal Sprague Dawley rat tissue (age: p7-p14). […] The eluent was then analyzed using liquid scintillation counting. The amount of inositol phosphate accumulation was expressed as a percentage of that induced by ACPD. […]

EC50 ([1]; agonist, read-out: Group II/III Agonist EC50) [nM] | EC50 [2] [µM] | EC50 ([1]; antagonist, versus glutamate, read-out: Group II/III Antagonist EC50) [nM] | SMILES
110 | 1600 |  | N[C@]1(C(=O)O)Cc2ccccc2[C@H]1CC(=O)O (relative stereo) [Trans-2 amino-2-carboxyindaneacetic acid (compound 8)]
 | 2.2 | 1.2 | N[C@@]1(C(=O)O)Cc2ccccc2[C@H]1CC(=O)O (relative stereo) [Cis-2 amino-2-carboxyindaneacetic acid (compound 8)]
